Data from ChEMBL document CHEMBL1201862, “PubChem BioAssay data set” (2004).
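Following 48 hours of exposure in 96-well plates, responses at five concentrations were used to interpolate endpoints linearly. At the GI50, growth is halved.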 Calls of active or inactive are those of the source. Rule as the data show it: active = GI50 up to about 1.1 µM and inactive = higher.

Tests used:
Assay in all cases: NCI-60 cell line screen, 48 h
[1] = system: PC-3
[2] = system: MCF7
[3] = system: DLD-1
[4] = system: LXFL 529
[5] = system: HOP-18
[6] = system: XF498
[7] = system: KM-20L2
[8] = system: DMS-273

With `Cc1cc(C)c2c(-c3ccccc3)cc(=O)[nH]c2c1` the GI50 [1] was > 100 µM (inactive) and the GI50 [2] was > 100 µM (inactive).
For `CN1/C(=C/C=C/C=C/C=C2C(=O)c3ccccc3C2=O)C(C)(C)c2ccccc21`, the GI50 [2] was 31.3 µM (inactive).
`CN1C2C=C(c3ccccc3)CC1CC2` (configuration not stated) was tested, and the GI50 [3] was > 100 µM (inactive), the GI50 [4] was > 100 µM (inactive) and the GI50 [5] was > 100 µM (inactive). For the same molecule, the GI50 [6] was > 100 µM (inactive) and the GI50 [7] was > 100 µM (inactive).
With `CCCCCCCc1ccc(-c2nnc(/N=N/c3ccc(OCCCCC)cc3)s2)s1` the GI50 [1] was > 100 µM (inactive) and the GI50 [2] was > 100 µM (inactive).
In the case of `CNc1cc2oc(=O)cc(C)c2cc1C`, the GI50 [1] is reported as > 100 µM (inactive) and the GI50 [2] is reported as 96.8 µM (inactive).
For `O=C1N(c2ccccc2)C(=O)C2(SC=NN2Cc2ccccc2)N1c1ccccc1` (configuration not stated), the GI50 [3] was > 100 µM (inactive), the GI50 [4] was > 100 µM (inactive) and the GI50 [5] was > 100 µM (inactive). The GI50 [6] was > 100 µM (inactive) and the GI50 [7] was > 100 µM (inactive).
With `Cc1ccc(S(=O)(=O)c2c3nc4ccccc4nc3n3c2[nH]c2ccccc23)cc1` the GI50 [8] was 88.7 µM (inactive), the GI50 [3] was > 100 µM (inactive) and the GI50 [4] was > 100 µM (inactive). For the same molecule, the GI50 [6] was > 100 µM (inactive) and the GI50 [7] was > 100 µM (inactive).
In the case of `CC(CCCCNC(=O)OC(C)(C)C)NC(=O)NC(C)CCCCNC(=O)OC(C)(C)C` (configuration not stated), the GI50 [1] is reported as > 100 µM (inactive) and the GI50 [2] is reported as 95.3 µM (inactive).
With `Cc1c(-c2ccc(O)cc2)n(CCCCCCNCCOC(=O)NCCCc2ccc(N(CCCl)CCCl)cc2)c2ccc(O)cc12` the GI50 [1] was 2.47 µM (inactive) and the GI50 [2] was 0.766 µM (active).
For `COc1cc(OCc2ccc3nc(-c4ccccc4)c(Cl)nc3c2)cc(OC)c1OC`, the GI50 [1] was > 100 µM (inactive) and the GI50 [2] was 59.7 µM (inactive).
In the case of `CN1CCN([C@H]2C[C@H]3[C@@H]4CC=C5C[C@@H](N6CCCC6)CC[C@]5(C)[C@H]4CC[C@]3(C)[C@H]2O)CC1`, the GI50 [1] is reported as 47.9 µM (inactive) and the GI50 [2] is reported as > 100 µM (inactive).
In the case of `O=C1OC(c2ccccc2)=N/C1=C\c1ccc(Cl)cc1`, the GI50 [1] is reported as > 100 µM (inactive) and the GI50 [2] is reported as > 100 µM (inactive).
`COc1cc2c(oc(=O)c3c4occc4cc(OC)c23)c2cccc(O)c12` was tested, and the GI50 [8] was > 100 µM (inactive), the GI50 [3] was > 100 µM (inactive) and the GI50 [4] was > 100 µM (inactive). For the same molecule, the GI50 [5] was > 100 µM (inactive), the GI50 [6] was > 100 µM (inactive) and the GI50 [7] was > 100 µM (inactive).
With `COCN1C(N)=C(C(=O)OC(C)(C)C)C2=CC(=O)C=CC21C` (configuration not stated) the GI50 [1] was 16.9 µM (inactive) and the GI50 [2] was 11 µM (inactive).
In the case of `N#CC(c1ccc(Cl)cc1)c1cccc(C(C#N)c2ccc(Cl)cc2)n1` (configuration not stated), the GI50 [3] is reported as 37.2 µM (inactive), the GI50 [4] is reported as 7.78 µM (inactive) and the GI50 [6] is reported as 5.13 µM (inactive). The GI50 [7] was 38.8 µM (inactive).
In the case of `O=[N+]([O-])c1cccc(/C=N/NC2=CS(=O)(=O)C=C2)c1`, the GI50 [1] is reported as > 100 µM (inactive) and the GI50 [2] is reported as > 100 µM (inactive).
For `CCSC1=N/C(=C\c2ccco2)C(Nc2ccc(C)cc2)=N1`, the GI50 [1] was > 100 µM (inactive) and the GI50 [2] was > 100 µM (inactive).
For `CSCCC(C(=O)O)N(C)C` (configuration not stated), the GI50 [1] was > 100 µM (inactive) and the GI50 [2] was > 100 µM (inactive).
With `COc1ccccc1C1=C2C(=O)N(C)C(c3ccccc3OC)=C2C(=O)N1C` the GI50 [1] was > 100 µM (inactive) and the GI50 [2] was > 100 µM (inactive).
`O=C(O)C1=C(C(=O)O)N(c2ccncc2)C(c2ccco2)=CC1c1ccccc1[N+](=O)[O-]` (configuration not stated) was tested, and the GI50 [1] was 13.4 µM (inactive) and the GI50 [2] was 2.65 µM (inactive).
With `CC(O)(C(=O)N(O)c1ccc(Cl)cc1)c1ccc(Cl)cc1` (configuration not stated) the GI50 [1] was 22.1 µM (inactive) and the GI50 [2] was 35.4 µM (inactive).
For `Nc1ccc(C(=O)NN2C(=O)C(Cl)C2c2ccccc2Cl)cc1` (configuration not stated), the GI50 [8] was 3.2 µM (inactive), the GI50 [3] was 10.8 µM (inactive) and the GI50 [4] was 2.06 µM (inactive). The GI50 [5] was 3.1 µM (inactive), the GI50 [6] was 17.5 µM (inactive) and the GI50 [7] was 15.8 µM (inactive).
With `CC(C)N(C(C)C)S(=O)(=O)C[C@]12CC[C@H](CC13OCC(CS(=O)(=O)c1ccccc1)O3)C2(C)C` (some centres not stated) the GI50 [1] was 35.3 µM (inactive) and the GI50 [2] was 36 µM (inactive).
`COc1cc(OC)cc(-n2c(N)c(-c3nc4ccccc4s3)c3ccc([N+](=O)[O-])cc3c2=O)c1` was tested, and the GI50 [2] was > 100 µM (inactive).
`CC(C)NC1CCCCC2c3cc(F)ccc3[C@]12O` (some centres not stated) was tested, and the GI50 [8] was > 100 µM (inactive), the GI50 [3] was > 100 µM (inactive) and the GI50 [4] was > 100 µM (inactive). The GI50 [5] was > 100 µM (inactive) and the GI50 [7] was > 100 µM (inactive).
For `C[C@@]12CCCC(=O)N1[C@@H](CO)C(c1ccccc1)O2` (some centres not stated), the GI50 [8] was > 100 µM (inactive), the GI50 [3] was > 100 µM (inactive) and the GI50 [5] was > 100 µM (inactive). For the same molecule, the GI50 [6] was > 100 µM (inactive) and the GI50 [7] was > 100 µM (inactive).
For `O=C1c2c(Br)sc(Br)c2[C@@H](NC(=O)C(F)(F)F)C1Br` (some centres not stated), the GI50 [1] was 4.3 µM (inactive) and the GI50 [2] was 5.71 µM (inactive).
`Cn1cnc([N+](=O)[O-])c1SC1=NCCS1` was tested, and the GI50 [8] was 98.6 µM (inactive), the GI50 [3] was 31.4 µM (inactive) and the GI50 [4] was 27 µM (inactive). The GI50 [5] was 4.24 µM (inactive) and the GI50 [6] was > 100 µM (inactive).
`CCCCCCCCCCCCc1ccc(S(=O)(=O)O)cc1` was tested, and the GI50 [1] was > 100 µM (inactive) and the GI50 [2] was 98.9 µM (inactive).
`COc1ccc(-c2cc(=O)c3c(OC)c(OC)c(OC)cc3o2)cc1` was tested, and the GI50 [2] was 37.4 µM (inactive).
With `COc1ccc2c(=O)c3ccoc3n(CC=C(C)C)c2c1` [ACROPHYLLINE] the GI50 [1] was 36.4 µM (inactive) and the GI50 [2] was 33.7 µM (inactive).
